Source: patent publication US20190375766A1, “PROCESS FOR PREPARING HALOGENATED BICYCLIC SYSTEMS” (Bayer CropScience Aktiengesellschaft, priority 2016, published 2019)

Assay: log P by HPLC-MS
Format: physicochemical

| SMILES | chromatographic logP |
| --- | --- |
| Cn1c(Br)nc2cc(C(F)(F)F)ncc21 [Example 3, 2-bromo-3-methyl-6-(trifluoromethyl)-3H-imidazo[4,5-c]pyridine] | 1.71 |
| Cn1cnc2cc(C(F)(F)F)ncc21 [Example 1, 3-methyl-6-(trifluoromethyl)-3H-imidazo[4,5-c]pyridine] | 1.09 |
| Cn1c(I)nc2cc(C(F)(F)F)ncc21 [Example 2, 2-iodo-3-methyl-6-(trifluoromethyl)-3H-imidazo[4,5-c]pyridine] | 1.77 |

Results, then the compound that gave them:

| chromatographic logP | SMILES |
| --- | --- |
| 1.66 | Cn1c(I)nc2cc(C(F)(F)F)nnc21 [Example 5, 6-iodo-7-methyl-3-(trifluoromethyl)-7H-imidazo[4,5-c]pyridazine] |
| 1.44 | Cn1cnc2cc(C(F)(F)F)cnc21 [Example 6, 3-methyl-6-(trifluoromethyl)-3H-imidazo[4,5-b]pyridine] |
| 0.91 | Cn1cnc2cc(C(F)(F)F)nnc21 [Example 4, 7-methyl-3-(trifluoromethyl)-7H-imidazo[4,5-c]pyridazine] |
| 2.29 | Cn1c(I)nc2cc(C(F)(F)F)cnc21 [Example 7, 2-iodo-3-methyl-6-(trifluoromethyl)-3H-imidazo[4,5-b]pyridine] |
